Measured values reported in PubChem BioAssay AID2060897 (Molecular Pharmacology Branch, DTP, NCI, 2025).

Test system: 966289-007-R4-J1-PDC complex spheroid viability
Experiment: Anticancer human tumor 966289-007-R4-J1-PDC patient-derived pancreatic adenocarcinoma cell line growth inhibition [RAS]
Conditions: for IC50: curve of first compound; for viability, T/C: stronger effect = lower value; active means viability on the fitted dose curve at most 10% of control; inactive means the rest
How it was run: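 Agents were tested in combination matrices in half-log decrements from a top concentration at or near clinical Cmax (10 microM if undetermined). Targets were multi-cell spheroids of tumour lines plus HUVEC and MSC stromal cells.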

[1] = second compound 0.000949 µM, first compound 0.0316 µM
[2] = second compound 0.000949 µM, first compound 0.1 µM
[3] = second compound 0.000949 µM, first compound 0.316 µM
[4] = second compound 0.000949 µM, first compound 1 µM
[5] = second compound 0.003 µM, first compound 0.0316 µM
[6] = second compound 0.003 µM, first compound 0.1 µM
[7] = second compound 0.003 µM, first compound 0.316 µM
[8] = second compound 0.003 µM, first compound 1 µM
[9] = second compound 0.00949 µM, first compound 0.0316 µM
[10] = second compound 0.00949 µM, first compound 0.1 µM
[11] = second compound 0.00949 µM, first compound 0.316 µM
[12] = second compound 0.00949 µM, first compound 1 µM
[13] = second compound 0.03 µM, first compound 0.0316 µM
[14] = second compound 0.03 µM, first compound 0.1 µM
[15] = second compound 0.03 µM, first compound 0.316 µM
[16] = second compound 0.03 µM, first compound 1 µM
[17] = second compound 0.0949 µM, first compound 0.0316 µM
[18] = second compound 0.0949 µM, first compound 0.1 µM
[19] = second compound 0.0949 µM, first compound 0.316 µM
[20] = second compound 0.0949 µM, first compound 1 µM
[21] = second compound 0.3 µM, first compound 0.0316 µM
[22] = second compound 0.3 µM, first compound 0.1 µM
[23] = second compound 0.3 µM, first compound 0.316 µM
[24] = second compound 0.3 µM, first compound 1 µM
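Further: spheroids exposed to agents for one week before readout.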
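Wherever viability, T/C is given: percent viability relative to DMSO vehicle control wells as 100%.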

C=CC(=O)N1CCN(c2nc(OCC3CCCN3C)nc3c(F)c(-c4nc(N)cc(C)c4C(F)(F)F)c(Cl)cc23)C(C)C1 (stereo unspecified) + CCn1c(-c2cccnc2C(C)OC)c2c3cc(ccc31)N1CCOC(CC(NC(=O)C(C(C)C)N(C)C(=O)C3(F)CCN(C(=O)C#CC(C)(C)N(C)C)CC3)C(=O)N3CCCC(N3)C(=O)OCC(C)(C)C2)C1
inactive: viability, T/C (second compound 0.000949 µM, first compound 0.00316 µM) 94.7% | viability, T/C (second compound 0.000949 µM, first compound 0.01 µM) 74.5% | viability, T/C [1] 93.2% | viability, T/C [2] 51% | viability, T/C [3] 67.2% | viability, T/C [4] 76.7% | viability, T/C (second compound 0.003 µM, first compound 0.00316 µM) 105% | viability, T/C (second compound 0.003 µM, first compound 0.01 µM) 66.2% | viability, T/C [5] 90% | viability, T/C [6] 50.3% | viability, T/C [7] 85.4% | viability, T/C [8] 69.7% | viability, T/C (second compound 0.00949 µM, first compound 0.00316 µM) 56.1% | viability, T/C (second compound 0.00949 µM, first compound 0.01 µM) 81.2% | viability, T/C [9] 94.1% | viability, T/C [10] 58.1% | viability, T/C [11] 87.2% | viability, T/C [12] 84% | viability, T/C (second compound 0.03 µM, first compound 0.00316 µM) 52% | viability, T/C (second compound 0.03 µM, first compound 0.01 µM) 65.9% | viability, T/C [13] 79.7% | viability, T/C [14] 59.8% | viability, T/C [15] 102% | viability, T/C [16] 85.3% | viability, T/C (second compound 0.0949 µM, first compound 0.00316 µM) 61.3% | viability, T/C (second compound 0.0949 µM, first compound 0.01 µM) 76.5% | viability, T/C [17] 95% | viability, T/C [18] 93.5% | viability, T/C [19] 91% | viability, T/C [20] 93.4% | viability, T/C (second compound 0.3 µM, first compound 0.00316 µM) 87.8% | viability, T/C (second compound 0.3 µM, first compound 0.01 µM) 90.8% | viability, T/C [21] 106% | viability, T/C [22] 92.2% | viability, T/C [23] 127% | viability, T/C [24] 91.6%
> 1000 nM: IC50 (second compound 0.000949 µM) | IC50 (second compound 0.003 µM) | IC50 (second compound 0.00949 µM) | IC50 (second compound 0.03 µM) | IC50 (second compound 0.0949 µM) | IC50 (second compound 0.3 µM)

CC(=O)OC12COC1CC(O)C1(C)C(=O)C(O)C3=C(C)C(OC(=O)C(O)C(NC(=O)OC(C)(C)C)c4ccccc4)CC(O)(C(OC(=O)c4ccccc4)C21)C3(C)C (stereo unspecified) + CCn1c(-c2cc(N3CCN(C)CC3)cnc2C(C)OC)c2c3cc(ccc31)-c1csc(n1)CC(NC(=O)C1CC1C)C(=O)N1CCCC(N1)C(=O)OCC(C)(C)C2
active: viability, T/C [1] 6.12% | viability, T/C [5] 6.11% | viability, T/C [6] 12.1% | viability, T/C [9] 6.07% | viability, T/C [10] 11.1% | viability, T/C [13] 7.27% | viability, T/C [14] 8.94% | viability, T/C [17] 5.65% | viability, T/C [18] 11.1% | viability, T/C [21] 7.9%
inactive: viability, T/C [2] 13.9% | viability, T/C [3] 13.5% | viability, T/C [4] 21.5% | viability, T/C (second compound 0.000949 µM, first compound 3.16 µM) 29.3% | viability, T/C (second compound 0.000949 µM, first compound 10 µM) 55% | viability, T/C [7] 10.9% | viability, T/C [8] 19.1% | viability, T/C (second compound 0.003 µM, first compound 3.16 µM) 35.8% | viability, T/C (second compound 0.003 µM, first compound 10 µM) 60.8% | viability, T/C [11] 13.5% | viability, T/C [12] 16.5% | viability, T/C (second compound 0.00949 µM, first compound 3.16 µM) 42.2% | viability, T/C (second compound 0.00949 µM, first compound 10 µM) 54.5% | viability, T/C [15] 16.7% | viability, T/C [16] 20.9% | viability, T/C (second compound 0.03 µM, first compound 3.16 µM) 40.2% | viability, T/C (second compound 0.03 µM, first compound 10 µM) 60.1% | viability, T/C [19] 13.4% | viability, T/C [20] 19.3% | viability, T/C (second compound 0.0949 µM, first compound 3.16 µM) 51.7% | viability, T/C (second compound 0.0949 µM, first compound 10 µM) 59.8% | viability, T/C [22] 14.3% | viability, T/C [23] 18.4% | viability, T/C [24] 23.5% | viability, T/C (second compound 0.3 µM, first compound 3.16 µM) 41.7% | viability, T/C (second compound 0.3 µM, first compound 10 µM) 56%
< 31.6 nM: IC50 (second compound 0.000949 µM) | IC50 (second compound 0.003 µM) | IC50 (second compound 0.00949 µM) | IC50 (second compound 0.03 µM) | IC50 (second compound 0.0949 µM) | IC50 (second compound 0.3 µM)

CCC(CC)c1cc(NC2CCC(N)C2)n2nccc2n1 (stereo unspecified) + C=CC(=O)N1CCN(c2nc(OCC3CCCN3C)nc3c(F)c(-c4nc(N)cc(C)c4C(F)(F)F)c(Cl)cc23)C(C)C1
1830 nM: IC50 (second compound 0.01 µM)
1850 nM: IC50 (second compound 0.0316 µM)
1840 nM: IC50 (second compound 1 µM)
inactive: viability, T/C (second compound 0.00316 µM, first compound 0.0316 µM) 104% | viability, T/C (second compound 0.00316 µM, first compound 0.1 µM) 93.6% | viability, T/C (second compound 0.00316 µM, first compound 0.316 µM) 112% | viability, T/C (second compound 0.00316 µM, first compound 1 µM) 131% | viability, T/C (second compound 0.01 µM, first compound 0.0316 µM) 99.5% | viability, T/C (second compound 0.01 µM, first compound 0.1 µM) 95.7% | viability, T/C (second compound 0.01 µM, first compound 0.316 µM) 101% | viability, T/C (second compound 0.01 µM, first compound 1 µM) 114% | viability, T/C (second compound 0.0316 µM, first compound 0.0316 µM) 92% | viability, T/C (second compound 0.0316 µM, first compound 0.1 µM) 102% | viability, T/C (second compound 0.0316 µM, first compound 0.316 µM) 103% | viability, T/C (second compound 0.0316 µM, first compound 1 µM) 123% | viability, T/C (second compound 0.1 µM, first compound 0.0316 µM) 103% | viability, T/C (second compound 0.1 µM, first compound 0.1 µM) 103% | viability, T/C (second compound 0.1 µM, first compound 0.316 µM) 111% | viability, T/C (second compound 0.1 µM, first compound 1 µM) 117% | viability, T/C (second compound 0.316 µM, first compound 0.0316 µM) 103% | viability, T/C (second compound 0.316 µM, first compound 0.1 µM) 97.9% | viability, T/C (second compound 0.316 µM, first compound 0.316 µM) 98.8% | viability, T/C (second compound 0.316 µM, first compound 1 µM) 125% | viability, T/C (second compound 1 µM, first compound 0.0316 µM) 91.4% | viability, T/C (second compound 1 µM, first compound 0.1 µM) 92.1% | viability, T/C (second compound 1 µM, first compound 0.316 µM) 119% | viability, T/C (second compound 1 µM, first compound 1 µM) 113%
1900 nM: IC50 (second compound 0.00316 µM)
1860 nM: IC50 (second compound 0.316 µM)
1880 nM: IC50 (second compound 0.1 µM)
active: viability, T/C (second compound 0.00316 µM, first compound 3.16 µM) 2.16% | viability, T/C (second compound 0.00316 µM, first compound 10 µM) 2.13% | viability, T/C (second compound 0.01 µM, first compound 3.16 µM) 2.2% | viability, T/C (second compound 0.01 µM, first compound 10 µM) 2.15% | viability, T/C (second compound 0.0316 µM, first compound 3.16 µM) 2.15% | viability, T/C (second compound 0.0316 µM, first compound 10 µM) 1.75% | viability, T/C (second compound 0.1 µM, first compound 3.16 µM) 2.07% | viability, T/C (second compound 0.1 µM, first compound 10 µM) 2.09% | viability, T/C (second compound 0.316 µM, first compound 3.16 µM) 2.42% | viability, T/C (second compound 0.316 µM, first compound 10 µM) 2.33% | viability, T/C (second compound 1 µM, first compound 3.16 µM) 2.27% | viability, T/C (second compound 1 µM, first compound 10 µM) 2.77%
